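Abbreviation: GI50, concentration required for 50% inhibition of growth. TGI denotes the concentration required for complete inhibition of growth.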
Key:
Experiment in all cases: growth of human tumour cells (NCI), 384-well format
[1] = test system: SK-OV-3 ovarian
[2] = test system: NCI-H23 lung
[3] = test system: SK-MEL-5 melanoma
[4] = test system: MOLT-4 leukemia
[5] = test system: NCI-H460 NSCLC
[6] = test system: SF-268 CNS
[7] = test system: EKVX NSCLC
[8] = test system: A549 NSCLC
[9] = test system: SK-MEL-28 melanoma
[10] = test system: UACC-257 melanoma
[11] = test system: MDA-MB-468 breast
[12] = test system: KM12 colon
[13] = test system: T-47D breast
[14] = test system: HOP-92 NSCLC
[15] = test system: SF-295 CNS
[16] = test system: SN12C renal
[17] = test system: UO-31 renal
[18] = test system: MALME-3M melanoma
[19] = test system: NCI/ADR-RES ovarian
[20] = test system: IGROV1 ovarian
[21] = test system: HS 578T breast
[22] = test system: NCI-H226 lung
[23] = test system: CAKI-1 renal
[24] = test system: HL-60(TB) leukemia
[25] = test system: SNB-19 CNS
[26] = test system: SR leukemia
[27] = test system: MDA-MB-435 melanoma
[28] = test system: HT29 colon
[29] = test system: SW-620 colon
[30] = test system: PC-3 prostate
[31] = test system: CCRF-CEM leukemia
[32] = test system: COLO 205 colon
[33] = test system: UACC-62 melanoma
[34] = test system: NCI-H522 lung
[35] = test system: HOP-62 NSCLC
[36] = test system: TK-10 renal
[37] = test system: 786-0 renal
[38] = test system: SNB-75 CNS
[39] = test system: HCT-15 colon
[40] = test system: OVCAR-3 ovarian
[41] = test system: RPMI-8226 leukemia
[42] = test system: BT-549 breast
[43] = test system: SF-539 CNS
[44] = test system: DU-145 prostate
[45] = test system: RXF 393 renal
[46] = test system: A498 renal
[47] = test system: LOX IMVI melanoma
[48] = test system: ACHN renal
[49] = test system: OVCAR-4 ovarian
[50] = test system: MDA-MB-231 breast
[51] = test system: M14 melanoma
[52] = test system: HCT-116 colon
[53] = test system: NCI-H322M lung
[54] = test system: U251 glioblastoma
[55] = test system: K-562 leukemia
[56] = test system: OVCAR-8 ovarian
[57] = test system: OVCAR-5 ovarian
[58] = test system: MCF7 breast

COc1cc(-c2cnn(C)c2)ccc1Nc1ncc2ccnc(N[C@@H](C)C(C)(C)C)c2n1
GI50 [1]: > 100 µM | TGI [1]: > 100 µM | GI50 [2]: 2.41 µM | TGI [2]: > 100 µM | GI50 [3]: > 100 µM | TGI [3]: > 100 µM | GI50 [4]: 0.026 µM | TGI [4]: 0.0647 µM | GI50 [5]: 0.0673 µM | TGI [5]: > 100 µM | GI50 [6]: 2.08 µM | TGI [6]: > 100 µM | GI50 [7]: > 100 µM | TGI [7]: > 100 µM | GI50 [8]: 0.115 µM | TGI [8]: > 100 µM | GI50 [9]: > 100 µM | TGI [9]: > 100 µM | GI50 [10]: > 100 µM | TGI [10]: > 100 µM | GI50 [11]: 0.486 µM | TGI [11]: > 100 µM | GI50 [12]: 0.0699 µM | TGI [12]: > 100 µM | GI50 [13]: > 100 µM | TGI [13]: > 100 µM | GI50 [14]: 27.5 µM | TGI [14]: > 100 µM | GI50 [15]: 3.54 µM | TGI [15]: > 100 µM | GI50 [16]: > 100 µM | TGI [16]: > 100 µM | GI50 [17]: 14.1 µM | TGI [17]: > 100 µM | GI50 [18]: > 100 µM | TGI [18]: > 100 µM | GI50 [19]: 0.442 µM | TGI [19]: > 100 µM | GI50 [20]: > 100 µM | TGI [20]: > 100 µM | GI50 [21]: 1.7 µM | TGI [21]: 45 µM | GI50 [22]: > 100 µM | TGI [22]: > 100 µM | GI50 [23]: > 100 µM | TGI [23]: > 100 µM | GI50 [24]: 0.11 µM | TGI [24]: 0.318 µM | GI50 [25]: 60.3 µM | TGI [25]: > 100 µM | TGI [26]: 0.0523 µM | GI50 [27]: > 100 µM | TGI [27]: > 100 µM | GI50 [28]: 0.632 µM | TGI [28]: > 100 µM | GI50 [29]: 0.112 µM | TGI [29]: > 100 µM | GI50 [30]: > 100 µM | TGI [30]: > 100 µM | GI50 [31]: 0.0835 µM | TGI [31]: 0.271 µM | GI50 [32]: 0.0809 µM | TGI [32]: > 100 µM | GI50 [33]: 7.46 µM | TGI [33]: 88.1 µM | GI50 [34]: 0.577 µM | TGI [34]: > 100 µM | GI50 [35]: 0.498 µM | TGI [35]: > 100 µM | GI50 [36]: 23.2 µM | TGI [36]: > 100 µM | GI50 [37]: 0.474 µM | TGI [37]: > 100 µM | GI50 [38]: 1.31 µM | TGI [38]: > 100 µM | GI50 [39]: 0.05 µM | TGI [39]: > 100 µM | GI50 [40]: > 100 µM | TGI [40]: > 100 µM | GI50 [41]: 0.302 µM | TGI [41]: > 100 µM | GI50 [42]: 53.6 µM | TGI [42]: > 100 µM | GI50 [43]: 0.476 µM | TGI [43]: > 100 µM | GI50 [44]: 0.376 µM | TGI [44]: > 100 µM | GI50 [45]: 0.29 µM | TGI [45]: 13 µM | GI50 [46]: 0.505 µM | TGI [46]: > 100 µM | GI50 [47]: 0.0893 µM | TGI [47]: > 100 µM | GI50 [48]: 3.26 µM | TGI [48]: > 100 µM | GI50 [49]: > 100 µM | TGI [49]: > 100 µM | GI50 [50]: 3 µM | TGI [50]: > 100 µM | GI50 [51]: 10.9 µM | TGI [51]: > 100 µM | GI50 [52]: 0.0447 µM | TGI [52]: > 100 µM | GI50 [53]: > 100 µM | TGI [53]: > 100 µM | GI50 [54]: 2.09 µM | TGI [54]: > 100 µM | GI50 [55]: 0.878 µM | TGI [55]: > 100 µM | GI50 [56]: 0.326 µM | TGI [56]: > 100 µM

C=CC(=O)N1CCCC(n2nc(-c3ccc(Oc4ccccc4)cc3)c3c(N)ncnc32)C1 (centres undefined)
GI50 [1]: 2.87 µM | TGI [1]: 20.5 µM | GI50 [2]: 16.3 µM | TGI [2]: 29.9 µM | GI50 [3]: 10.9 µM | TGI [3]: 23 µM | GI50 [4]: 1.32 µM | TGI [4]: 5.02 µM | GI50 [5]: 16.5 µM | TGI [5]: 30.1 µM | GI50 [57]: 18.7 µM | TGI [57]: 32.8 µM | GI50 [6]: 6.51 µM | TGI [6]: 20 µM | GI50 [7]: 0.316 µM | TGI [7]: 16.7 µM | GI50 [8]: 12.1 µM | TGI [8]: 24.5 µM | GI50 [9]: 17.3 µM | TGI [9]: 31.2 µM | GI50 [10]: 10.6 µM | TGI [10]: 22.5 µM | GI50 [11]: 0.0226 µM | TGI [11]: 0.239 µM | GI50 [58]: 10.3 µM | TGI [58]: 22.1 µM | GI50 [12]: 14.5 µM | TGI [12]: 27.7 µM | GI50 [13]: 0.0148 µM | TGI [13]: 17.7 µM | GI50 [14]: 13.6 µM | TGI [14]: 26.5 µM | GI50 [15]: 14.7 µM | TGI [15]: 27.9 µM | GI50 [16]: 2.71 µM | TGI [16]: 16.5 µM | GI50 [17]: 6.11 µM | TGI [17]: 19.9 µM | GI50 [18]: 13.5 µM | TGI [18]: 26.4 µM | GI50 [19]: 11.3 µM | TGI [19]: 23.5 µM | GI50 [20]: 0.114 µM | TGI [20]: 5.9 µM | GI50 [21]: 6.88 µM | TGI [21]: 19.5 µM | GI50 [22]: 6.21 µM | TGI [22]: 19.3 µM | GI50 [23]: 6.76 µM | TGI [23]: 19.6 µM | GI50 [24]: 15.9 µM | TGI [24]: 29.4 µM | GI50 [25]: 15 µM | TGI [25]: 28.4 µM | GI50 [26]: 5.35 µM | TGI [26]: 18.4 µM | GI50 [27]: 17.2 µM | TGI [27]: 31.1 µM | GI50 [29]: 18.4 µM | TGI [29]: 32.5 µM | GI50 [30]: 14.8 µM | TGI [30]: 28.1 µM | GI50 [32]: 18.9 µM | TGI [32]: 33 µM | GI50 [33]: 5.71 µM | TGI [33]: 18.7 µM | GI50 [34]: 0.0178 µM | TGI [34]: 0.0859 µM | GI50 [35]: 15.2 µM | TGI [35]: 28.6 µM | GI50 [36]: 0.479 µM | TGI [36]: 12.1 µM | GI50 [37]: 3.78 µM | TGI [37]: 17.4 µM | GI50 [38]: 5.51 µM | TGI [38]: 14 µM | GI50 [39]: 12.6 µM | TGI [39]: 25.3 µM | GI50 [40]: 2.05 µM | TGI [40]: 15.5 µM | GI50 [41]: 10.5 µM | TGI [41]: 22.4 µM | GI50 [42]: 3.59 µM | TGI [42]: 13.3 µM | GI50 [43]: 11.3 µM | TGI [43]: 23.4 µM | GI50 [44]: 4.16 µM | TGI [44]: 19.2 µM | GI50 [45]: 1.18 µM | TGI [45]: 6.31 µM | GI50 [46]: 11.5 µM | TGI [46]: 23.7 µM | GI50 [47]: 4.43 µM | TGI [47]: 19.3 µM | GI50 [48]: 0.655 µM | TGI [48]: 17.3 µM | GI50 [49]: 11.2 µM | TGI [49]: 23.3 µM | GI50 [50]: 16.2 µM | TGI [50]: 29.8 µM | GI50 [51]: 11.1 µM | TGI [51]: 23.2 µM | GI50 [52]: 15.3 µM | TGI [52]: 28.8 µM | GI50 [54]: 14 µM | TGI [54]: 27.1 µM | GI50 [56]: 12.1 µM | TGI [56]: 24.6 µM

Source: PubChem BioAssay (NCI)
